# Structures can show the parent of a compound that is named as a salt. Where two headings read alike, the source gives them in different places.
# Test system: relapsed AML cells
# Test: Drug sensitivity assay, 1,536-well, 3-day culture with individual approved drugs at 10 μM, viability by alamarBlue
# Type: cell-based, human
# How it was run: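 FACS-sorted viable myeloid blasts from thawed AML samples, 4,000-4,500 cells per 5 μL well, cultured in IMDM with 15% BIT, SCF, FLT3L, IL-3, G-CSF. Drugs added per well; after three days percentage of live cells measured to gauge killing.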
# [1] = number of relapsed AML cases out of 18 tested with >70% cell death, 10 μM, 3-day culture
Compound,#Cases >70% cell death [1],#Cases >70% cell death
CCn1cc(-c2ccnc3[nH]c(-c4cccc(CN(C)C)c4)cc23)c(-c2ccc(NC(=O)N(C)C)cc2)n1 [GSK1070916],11,–
CCCCN(CCCC)CCCOC(=O)c1ccc(N)cc1 [BUTACAINE],1,–
OCCN1CCN(CCCN2c3ccccc3Sc3ccc(C(F)(F)F)cc32)CC1 [FLUPHENAZINE],3,–
O=C(O)C1[O][Sb]2[O]C(=O)C([O]2)C(C(=O)O)[O][Sb]2[O]C(=O)C1[O]2 (centres unmarked) [ANTIMONY POTASSIUM TARTRATE TRIHYDRATE],–,3
COc1ccc(S(=O)(=O)N(C(C)=O)c2ccccc2/C=C/c2cc[n+]([O-])cc2)cc1 [HMN-214],5,–
CC[C@@H]([C@H](C)O)n1ncn(-c2ccc(N3CCN(c4ccc(OC[C@@H]5CO[C@@](Cn6cncn6)(c6ccc(F)cc6F)C5)cc4)CC3)cc2)c1=O [POSACONAZOLE],6,–
Cc1cccc(C)c1N=C1NCCCS1 [XYLAZINE],4,–
Cc1ccc(C(=O)N(CCCN)[C@@H](c2nc3cc(Cl)ccc3c(=O)n2Cc2ccccc2)C(C)C)cc1 [ISPINESIB MESYLATE],2,–
CNC(=O)c1ccccc1Sc1ccc2c(/C=C/c3ccccn3)n[nH]c2c1 [AXITINIB],9,–
COc1cc(Nc2c(C#N)cnc3cc(OCCCN4CCN(C)CC4)c(OC)cc23)c(Cl)cc1Cl [BOSUTINIB],12,–
CCCCCCCCOc1ccccc1C(=O)Nc1ccc(C(=O)OCC[N+](C)(CC)CC)cc1 [OTILONIUM BROMIDE],4,–
CN1CCN(CCCN2c3ccccc3Sc3ccc(C(F)(F)F)cc32)CC1 [TRIFLUOPERAZINE],3,–
C=CC(N)CCC(=O)O (centres unmarked) [VIGABATRIN],13,–
O=C(O)CCCCN(CCc1ccccc1OCc1ccc(CCc2ccccc2)cc1)Cc1ccc(C(=O)O)cc1,1,–
COc1cccc([C@@H](C)NCCCc2ccccc2Cl)c1 [TECALCET HYDROCHLORIDE],1,–
Cc1cc([C@@H](C)Nc2ccccc2C(=O)O)c2nc(N3CCOCC3)cc(=O)n2c1 [AZD-6482],1,–
CC(=O)OCC(=O)[C@@]12N=C(C)O[C@@H]1C[C@H]1[C@@H]3CCC4=CC(=O)C=C[C@]4(C)[C@H]3[C@@H](O)C[C@@]12C [DEFLAZACORT],8,–
C=CC(=O)N1CCC[C@@H](n2nc(-c3ccc(Oc4ccccc4)cc3)c3c(N)ncnc32)C1 [IBRUTINIB],2,–
CCCCCCCCCCCCCCCC[N+](C)(C)C.[Br-] [CETRIMONIUM BROMIDE],17,–
CS(=O)(=O)CCNCc1ccc(-c2ccc3ncnc(Nc4ccc(OCc5cccc(F)c5)c(Cl)c4)c3c2)o1 [LAPATINIB],2,–
Clc1ccc(Cn2c(CN3CCCC3)nc3ccccc32)cc1 [CLEMIZOLE HYDROCHLORIDE],1,–
COc1ccc(CN2CCN(C(c3ccc(F)cc3)c3ccc(F)cc3)CC2)c(OC)c1OC [LOMERIZINE],7,–
CN1CCC(CNc2ccc3ncc(-c4cccc(OC(F)(F)F)c4)n3n2)CC1 [SGI-1776],14,–
COc1cc([C@@H]2c3cc4c(cc3[C@@H](O[C@@H]3O[C@@H]5CO[C@@H](C)O[C@H]5[C@H](O)[C@H]3O)[C@H]3COC(=O)[C@H]23)OCO4)cc(OC)c1O [ETOPOSIDE],5,–

Compound,#Cases >70% cell death [1],#Cases >70% cell death
Cc1nc2sccn2c(=O)c1CCN1CCC(=C(c2ccc(F)cc2)c2ccc(F)cc2)CC1 [RITANSERIN],1,–
c1ccc(-c2ccc(C(c3ccccc3)n3ccnc3)cc2)cc1 (centres unmarked) [BIFONAZOLE],1,–
Cc1c(Nc2ncccc2C(=O)O)cccc1C(F)(F)F [FLUXININ],3,–
N=C(N)NC(=O)Cc1c(Cl)cccc1Cl [GUANFACINE HCL],1,–
CCCCOc1cc(C(=O)OCCN(CC)CC)ccc1N [BENOXINATE],5,–
COCc1c(C(C)C)nc(C(C)C)c(/C=C/[C@@H](O)C[C@@H](O)CC(=O)O)c1-c1ccc(F)cc1 [CERIVASTATIN],17,–
C[C@]12CC[C@@H]3c4ccc(OS(=O)(=O)O)cc4CC[C@H]3[C@@H]1CCC2=O [ESTROPIPATE],1,–
COc1ccc(C[C@H](N)C(=O)N[C@H]2[C@@H](O)[C@H](n3cnc4c(N(C)C)ncnc43)O[C@@H]2CO)cc1 [PUROMYCIN],18,–
Cc1ccc2nc(N)[nH]c(=O)c2c1Sc1ccncc1 [NOLATREXED DIHYDROCHLORIDE],1,–
O=C(CCCN1CCN(c2ccccn2)CC1)c1ccc(F)cc1 [AZAPERONE],1,–
OCCOCCN1CCN(C2=Nc3ccccc3Sc3ccccc32)CC1 [QUETIAPINE],1,–
Cc1cc(C#N)cc(C)c1Oc1nc(Nc2ccc(C#N)cc2)nc(N)c1Br [ETRAVIRINE],1,–
CCN(CC)CCNc1ccc(CO)c2sc3ccccc3c(=O)c12 [HYCANTHONE],9,–
C[C@H]1O[C@@H](O[C@H]2[C@@H](O)C[C@H](O[C@H]3[C@@H](O)C[C@H](O[C@H]4CC[C@@]5(C)[C@H](CC[C@@H]6[C@@H]5C[C@@H](O)[C@]5(C)[C@@H](C7=CC(=O)OC7)CC[C@]65O)C4)O[C@@H]3C)O[C@@H]2C)C[C@H](O)[C@@H]1O [DIGOXIN],18,–
CCN1CCN(Cc2ccc(-c3cc4c(N[C@H](C)c5ccccc5)ncnc4[nH]3)cc2)CC1 [AEE-788],13,–
Cn1c(=O)c2c(ncn2CC2OCCO2)n(C)c1=O [DOXOFYLLINE],1,–
CCN(CC)CCOc1ccc(Cc2ccccc2)cc1 [TESMILIFENE HYDROCHLORIDE],9,–
ABAMECTIN,18,–
COc1cc2c(cc1OC)CN(CCc1ccc(NC(=O)c3cccc4c(=O)c5cccc(OC)c5[nH]c34)cc1)CC2,2,–
CC(=O)[C@@]1(O)CC[C@H]2[C@@H]3C=C(Cl)C4=CC(=O)[C@@H]5C[C@@H]5[C@]4(C)[C@H]3CC[C@@]21C [CYPROTERONE],1,–
MONENSIN SODIUM [MONENSIN SODIUM (MONENSIN A IS SHOWN)],7,–
COc1cc([C@@H]2c3cc4c(cc3[C@H](O)[C@H]3COC(=O)[C@H]23)OCO4)cc(OC)c1OC [PODOFILOX],13,–
O=C(Nc1cccnn1)N1CCC(=Cc2cccc(Oc3ccc(C(F)(F)F)cn3)c2)CC1 [PF-4457845],1,–
O=C1Cc2cc(CCN3CCN(c4nsc5ccccc45)CC3)c(Cl)cc2N1 [ZIPRASIDONE],3,–

Compound,#Cases >70% cell death [1],#Cases >70% cell death
COc1cccc2c1C(=O)c1c(O)c3c(c(O)c1C2=O)C[C@@](O)(C(=O)CO)C[C@@H]3O[C@H]1C[C@H](N)[C@H](O)[C@H](C)O1 [DOXORUBICIN],18,–
COc1ncnc(NS(=O)(=O)c2ccc(N)cc2)c1OC [SULFADOXINE],1,–
O=c1[nH]c(=O)n([C@H]2C[C@H](O)[C@@H](CO)O2)cc1C(F)(F)F [TRIFLURIDINE],6,–
CC(=O)O[C@@]12CO[C@@H]1C[C@H](O)[C@@]1(C)C(=O)[C@H](O)C3=C(C)[C@@H](O)C[C@@](O)([C@@H](OC(=O)c4ccccc4)[C@H]21)C3(C)C [10-DAB],1,–
CC(=O)Nc1ccc([C@H](C)C(=O)Nc2ncc(C(C)C)s2)cc1 [PHA-690509],11,–
CC[C@H]1CN2CCc3cc(OC)c(OC)cc3[C@@H]2C[C@@H]1C[C@H]1NCCc2cc(OC)c(OC)cc21 [EMETINE],18,–
CN1CCN(c2ncc(-c3cc(Cl)cc(Cl)c3Cl)c(N)n2)CC1 [SIPATRIGINE],1,–
C[C@]12CC[C@@H]3c4ccc(O)cc4CC[C@H]3[C@@H]1CC[C@@H]2OC(=O)CCC1CCCC1 [ESTRADIOL CYPIONATE],2,–
N#CN=C(NCCCCCCOc1ccc(Cl)cc1)Nc1ccncc1 [GMX1778],16,–
Cc1cc(C(=O)NOCCO)c(Nc2ccc(I)cc2F)n(C)c1=O [AZD8330],2,–
C=C1C[C@H]2[C@@H]3C=C(C)C4=CC(=O)CC[C@]4(C)[C@H]3CC[C@]2(C)[C@@]1(OC(C)=O)C(C)=O [MELENGESTROL ACETATE],2,–
CCCCCCCCCCCCCCCC[N+](C)(C)CCN(Cc1ccc(OC)cc1)c1ncccn1 [THONZONIUM BROMIDE],18,–
CCOC(=O)C1=C(C)NC(C)=C(C(=O)OCC)C1c1ccccc1/C=C/C(=O)OC(C)(C)C [LACIDIPINE],2,–
CC[C@H]1OC(=O)C[C@@H](O)[C@H](C)[C@@H](O[C@@H]2O[C@H](C)[C@@H](O[C@H]3C[C@@](C)(O)[C@@H](O)[C@H](C)O3)[C@H](N(C)C)[C@H]2O)[C@@H](CC=O)C[C@@H](C)C(=O)/C=C/C(C)=C/[C@@H]1CO[C@@H]1O[C@H](C)[C@@H](O)[C@@H](OC)[C@H]1OC [TYLOSIN],1,–
COc1ccc(F)c(F)c1C(=O)c1cnc(NC2CCN(S(C)(=O)=O)CC2)nc1N [R-547],18,–
CCc1ccc(CCOc2ccc(CC3SC(=O)NC3=O)cc2)nc1 (centres unmarked) [PIOGLITAZONE],8,–
CCCCCCCCCCCC[N+](C)(C)CCOc1ccccc1 [DOMIPHEN BROMIDE],16,–
N#CCNC(=O)c1ccc(-c2ccnc(Nc3ccc(N4CCOCC4)cc3)n2)cc1 [CYT387],14,–
"C=CC(=O)Nc1cc(Nc2nccc(-c3cn(C)c4ccccc34)n2)c(OC)cc1N(C)CCN(C)C [OSIMERTINIB (tagrisso), OSIMERTINIB]",1,–
CNC(=O)c1cc(Oc2ccc(NC(=O)Nc3ccc(Cl)c(C(F)(F)F)c3)c(F)c2)ccn1 [REGORAFENIB],9,–
Cc1c(-c2ccc(O)cc2)n(Cc2ccc(OCCN3CCCCCC3)cc2)c2ccc(O)cc12 [BAZEDOXIFENE HCL],8,–
C[n+]1cc2c3c(ccc2c2ccc4cc5c(cc4c21)OCO5)OCO3 [SANGUINARIUM CHLORIDE],18,–
Nc1c2ccccc2nc2ccccc12 [AMINACRINE],18,–
